# Measured values from patent US11440905B2, “Biheterocyclic compound” (SUMITOMO PHARMA CO., LTD., priority 2016, dated 2022).
# Counter-ions that a name gives are not always drawn.
# Assays:
# [1] = target: T1, mouse Sema3A binding to CHO cells stably-expressing mouse neuropilin (Mus musculus, UniProt O08665); assay: Inhibitory activity for the neuropilin-binding activity caused by Sema3A (Test 2); settings: 1 h, AP-Sema3A, read-out: residual ratio (%) of avidity (Sema3A-neuropilin binding); for remaining activity at 100 µM: 100 μM test compound, smaller value = more potent binding inhibition
# T1 construct: host or cells: CHO cells stably expressing the neuropilin partner
# T1 sequence (O08665 21-772): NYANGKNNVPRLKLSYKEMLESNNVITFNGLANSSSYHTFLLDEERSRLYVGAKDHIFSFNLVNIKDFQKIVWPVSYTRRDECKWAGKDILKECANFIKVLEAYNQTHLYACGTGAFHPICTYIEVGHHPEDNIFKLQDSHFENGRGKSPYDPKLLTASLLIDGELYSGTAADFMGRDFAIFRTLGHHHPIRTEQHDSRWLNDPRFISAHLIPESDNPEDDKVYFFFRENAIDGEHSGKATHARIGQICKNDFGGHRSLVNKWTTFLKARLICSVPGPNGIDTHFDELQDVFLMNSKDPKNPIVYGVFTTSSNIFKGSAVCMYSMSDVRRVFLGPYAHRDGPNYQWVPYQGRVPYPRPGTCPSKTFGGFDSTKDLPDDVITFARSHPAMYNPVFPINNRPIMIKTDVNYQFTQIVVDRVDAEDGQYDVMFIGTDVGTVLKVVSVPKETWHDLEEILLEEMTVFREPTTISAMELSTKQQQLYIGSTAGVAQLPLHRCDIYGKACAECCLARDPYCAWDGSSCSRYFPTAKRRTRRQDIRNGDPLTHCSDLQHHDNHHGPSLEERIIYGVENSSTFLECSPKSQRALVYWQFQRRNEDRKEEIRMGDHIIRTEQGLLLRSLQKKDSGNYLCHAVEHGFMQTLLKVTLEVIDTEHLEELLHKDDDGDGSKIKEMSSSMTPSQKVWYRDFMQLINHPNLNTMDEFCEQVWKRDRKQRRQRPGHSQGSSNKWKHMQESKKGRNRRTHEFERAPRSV
# Method: (Test 2) Inhibitory Activity for the Neuropilin-Binding Activity Caused by Sema3A
# To each well of 96 well-plate (IWAKI) was seeded CHO cells stably-expressing mouse neuropilin, the cells were cultivated in F12 medium (10% fetal bovine serum, 100 units/mL penicillin, and 100 μg/mL streptomycin) under the condition of 5% CO2 and 37° C. for 18 hours. And then, the culture medium was removed, and mouse Sema3A which included each test compound and alkaline phosphatase (AP) in various concentrations was added thereto, and the culture was reacted at room temperature for more one hour. Then, the reaction solution was removed, the residual cells were washed with HBSS solution (0.25% BSA) and dissolved in a solution (10 mM Tris including 1% Triton X-100) at 65° C. for one hour, and the AP activity thereof was measured.
# [2] = test system: dry eye-model rat (exorbital lacrimal gland excised); assay: Drug evaluation for corneal disorder in dry eye-model rat (Test 3); assay type: in vivo; settings: eye drop 1 μL per shot, 6 times per day, 4 weeks
# Method: (Test 3) Drug Evaluation for Corneal Disorder in Dry Eye-Model Rat
# A model rat whose exorbital lacrimal gland is excised is generally used as a model for evaluating the drug efficacy for corneal disorder caused by dry eye. As for corneal disorder of the rat, hyaluronic acid (HA) and diquafosol sodium (DQS) which are existing drugs, and the present compound (Example 3) were administered to the rat, and each efficacy thereof was evaluated.
# Male SD rat was anesthetized with inhalational isoflurane, and the exorbital lacrimal gland thereof was excised to prepare a dry eye-model rat (the conditions to prepare the dry eye-model rat can be changed as necessary, for example, by combining the excision of exorbital lacrimal gland with the medication of streptozotocin or the like). […]
# The site of corneal disorder was stained with a fluorescein (FITC) solution, and the extent of the disorder was evaluated with the score gained from the following method. […]
# The statistical significance for the drug effect was evaluated by nonparametric Tukey's multiple comparison test, in which the result of each test group was compared with that of the control (intact) group which was not operated by excising exorbital lacrimal gland.
# [3] = target: T2, mouse semaphorin 3A (Sema3A) (Mus musculus, UniProt O08665); assay: Inhibitory activity for the collapse activity caused by Sema3A (growth cone collapse assay, Test 1); assay type: cell-based; settings: 1 μM test compound; chick embryo dorsal root ganglion; 3 units/mL mouse Sema3A; smaller value = more potent inhibition; read-out: residual ratio (%) of Sema3A activity (collapse assay)
# T2 sequence (O08665 21-772): T1 sequence (O08665 21-772)
# Method: Inhibitory Activity for the Collapse Activity Caused by Sema3A
# 96 well-plate (SUMITOMO BAKELITE CO., LTD.) which was beforehand coated with polylysine was further coated with laminin (10 μL laminin, at room temperature, for 1 hour). To each well was added 100 μL of a medium (F12 medium containing 10% fetal bovine serum, 20 ng/mL NGF, 100 unit/mL penicillin, and 100 μg/mL streptomycin). Dorsal root ganglion harvested from 7-8 day-old chick embryo was inoculated thereto, and the culture medium was cultivated under the condition of 5% CO2 and 37° C. for 16-20 hours. And then, each test compound in various concentrations was added to the medium, each test medium was cultivated for 30 minutes, 3 units/mL mouse semaphorin 3A (Sema3A) was added to each medium, and then each test medium was cultivated for more 30 minutes. Then, glutaraldehyde was added to the medium, in which the final concentration of glutaraldehyde was 1%. The medium was left to stand at room temperature for 15 minutes to make the tissue fragment fixed, and the ratio of the retracted growth cone was measured under a microscope.
# [4] = test system: dry eye-model rat associated with the dysfunction of corneal nerves; assay: Drug evaluation for the dysfunction of corneal nerves in dry eye rat model (Test 4); assay type: in vivo; settings: lacrimal gland excision plus streptozotocin 55 mg/kg i.p.; eye drop 1 μL per shot, 6 times per day, 4 weeks; 0.3% HA, 3% DQS, 0.1% Example 3
# Method: Drug Evaluation for the Dysfunction of Corneal Nerves in Dry Eye Rat Model
# Male SD rat was anesthetized with inhalational isoflurane. The exorbital lacrimal gland thereof was excised, and at the same day, streptozotocin was administered intraperitoneally to the rat (55 mg/kg) to prepare a dry eye-model rat associated with the dysfunction of corneal nerves. Several weeks after the operation, 0.3% HA ophthalmic solution, 3% DQS ophthalmic solution, and 0.1% the ophthalmic solution of the present compound (Example 3) were administered to the rat in an awareness at 1 μL per shot, 6 times per day, for 4 weeks.
# The cornea of the rat was softly held by hand. The drug effect for the dysfunction of corneal nerves was evaluated through blink reflex by contacting the cornea with the nylon filament of cochet-bonnet corneal esthesiometer. First, the tip of the nylon filament (length: 60 mm, diameter: 0.12 mm) was made to almost-vertically contact with the center of cornea, and the nylon filament was made to curve a little. […]
# The statistical significance for the drug effect was evaluated by confirming that P value is less than 5% in Student's t test between the intact group and the PBS group, and then carrying out Student's t test between the intact group and the present compound group. […]
Structure (SMILES),remaining activity at 100 µM [1] [%],also measured
"Cn1cc(-c2coc3cc(O)c(O)c(C(=O)OCCN(CC(=O)O)CC(=O)O)c3c2=O)c(=O)c2cc(O)c(O)cc21 [Example 22, 2,2′-{[2-({[3-(6,7-Dihydroxy-1-methyl-4-oxo-1,4-dihydroquinolin-3-yl)-6,7-dihydroxy-4-oxo-4H-chromen-5-yl]carbonyl}oxy)ethyl]imino}-di-acetic acid]",62.1,–
"Cn1cc(-c2coc3cc(O)c(O)c(C(=O)OCCOCCC(=O)O)c3c2=O)c(=O)c2cc(O)c(O)cc21 [Example 20, 3-[2-({[3-(6,7-Dihydroxy-1-methyl-4-oxo-1,4-dihydroquinolin-3-yl)-6,7-dihydroxy-4-oxo-4H-chromen-5-yl]carbonyl}oxy)ethoxy]propanoic acid]",56.5,–
"Cn1cc(-c2coc3cc(O)c(O)c(C(=O)OCCN4CCC(O)C4)c3c2=O)c(=O)c2cc(O)c(O)cc21 (stereo not drawn) [Example 28, 2-(3-Hydroxypyrrolidin-1-yl)ethyl 3-(6,7-dihydroxy-1-methyl-4-oxo-1,4-dihydroquinolin-3-yl)-6,7-dihydroxy-4-oxo-4H-chromene-5-carboxylate]",87.1,–
"CN1CCN(C)C(COC(=O)c2c(O)c(O)cc3occ(-c4cn(C)c5cc(O)c(O)cc5c4=O)c(=O)c23)C1 (stereo not drawn) [Example 25, (1,4-Dimethylpiperazin-2-yl)methyl 3-(6,7-dihydroxy-1-methyl-4-oxo-1,4-dihydroquinolin-3-yl)-6,7-dihydroxy-4-oxo-4H-chromene-5-carboxylate hydrochloride]",90.5,–
"Cn1cc(-c2coc3cc(O)c(O)c(C(=O)OCCOCCC(=O)N[C@@H](CCC(=O)O)C(=O)O)c3c2=O)c(=O)c2cc(O)c(O)cc21 [Example 21, N-{3-[2-({[3-(6,7-Dihydroxy-1-methyl-4-oxo-1,4-dihydroquinolin-3-yl)-6,7-dihydroxy-4-oxo-4H-chromen-5-yl]carbonyl}oxy)ethoxy]propanoyl}-L-glutamic acid]",58.5,–
"Cn1ccnc1COC(=O)c1c(O)c(O)cc2occ(-c3cn(C)c4cc(O)c(O)cc4c3=O)c(=O)c12 [Example 26, (1-Methyl-1H-imidazol-2-yl)methyl 3-(6,7-dihydroxy-1-methyl-4-oxo-1,4-dihydroquinolin-3-yl)-6,7-dihydroxy-4-oxo-4H-chromene-5-carboxylate hydrochloride]",–,remaining activity at 10 µM ([1]; 10 μM test compound (footnote *)): 97.8%
"Cn1cc(-c2coc3cc(O)c(O)c(C(=O)OCCOCCOCCOCCOCCO)c3c2=O)c(=O)c2cc(O)c(O)cc21 [Example 29, 14-Hydroxy-3,6,9,12-tetraoxatetradec-1-yl 3-(6,7-dihydroxy-1-methyl-4-oxo-1,4-dihydroquinolin-3-yl)-6,7-dihydroxy-4-oxo-4H-chromene-5-carboxylate]",49.3,–
"Cn1cc(-c2coc3cc(O)c(O)c(C(=O)OCc4cn(CC(=O)N[C@@H](CCC(=O)O)C(=O)O)nn4)c3c2=O)c(=O)c2cc(O)c(O)cc21 [Example 3, N-({4-[({[3-(6,7-Dihydroxy-1-methyl-4-oxo-1,4-dihydroquinolin-3-yl)-6,7-dihydroxy-4-oxo-4H-chromen-5-yl]carbonyl}oxy)methyl]-1H-1,2,3-triazol-1-yl}acetyl)-L-glutamic acid]",–,"therapeutic effect for corneal disorder caused by dry eye (fluorescein staining score 0-3) ([2]; 0.3% HA, 3% DQS, Example 3 ophthalmic solution, compared with intact group): potent therapeutic effect; improvement of corneal disorder compared with the vehicle-administration group (PBS) ([2]; ** denotes p<0.01): significant improvement; remaining activity at 1 µM [3]: 4%; therapeutic effect for the dysfunction of corneal nerves (corneal perception, blink reflex, Cochet-Bonnet esthesiometer) [4]: marked therapeutic effect"
"COC(=O)CCOCCOC(=O)c1c(O)c(O)cc2occ(-c3cn(C)c4cc(O)c(O)cc4c3=O)c(=O)c12 [Example 31, 2-(3-Methoxy-3-oxopropoxy)ethyl 3-(6,7-dihydroxy-1-methyl-4-oxo-1,4-dihydroquinolin-3-yl)-6,7-dihydroxy-4-oxo-4H-chromene-5-carboxylate]",69.4,–
